Data taken from patent US8383637B2, “2-amino-quinazoline derivatives useful as inhibitors of β-secretase (BACE)” (Jansssen Pharmaceutica N.V., priority 2004, dated 2013).
Values joined by “and” are separate entries in the source; they are usually repeats but may differ in a detail not shown here. Equal values may be shown once.

Key:
Assay type in all cases: biochemical
β-secretase(BACE) [1] = target: T1, β-secretase(BACE) (Homo sapiens, UniProt P56817); experiment: BACE Assay-1 (MCA-substrate, IC50); details: procedure of Example 158; read-out: IC50 μM (158)
T1 construct: purchased Panvera
Procedure: The following standards are reagents were used in this assay: Sodium Citrate trisodium salt dihydrate (Sigma), Citric Acid monohydrate (Merck), PEG8000 (Sigma), MCA-substrate (Bachem), β-secretase (BACE) (Panvera), 96-well plate zwart (Costar (Elscolab)), StatVal (Bachem).
The following standard assay buffer solution was prepared and used in this assay: 0.05 M, pH 5.0 mixture of sodium citrate trisodium salt dihydrate (9.56 g), citric acid monohydrate (3.68 g) and PEG8000 (0.50 g).
The MCA-substrate stock solution was prepared by mixing 10 mg MCA-substrate with 5 mL DMSO for a final solution concentration of 2.0 mg/mL. The substrate work solution was prepared by mixing 0.1 mL substrate in 1.90 mL assay buffer for a final concentration of 0.05 mM. The β-secretase (BACE) work solution was prepared by mixing 8 μL BACE in 2 mL assay buffer for a final concentration of 10 μg/mL.
The screen procedure for this assay was as follows. 60 μL of assay buffer was pippeted into each well of a 96-well plate. To each well was then pipetted 1 μL of test compound at the selected concentration. To each well was then added 20 μL of the β-secretase work solution and 20 μL of the MCA-substrate stock solution.
The procedure for the blank was as follows. 80 μL of assay buffer was pipetted into each well to be used as a blank control. To each well was then added 1 μL of DMSO and 20 μL of MCA-substrate solution in each well.
The procedure for the positive control was as follows. 60 μL of assay buffer was pipetted into each well to be used as a positive control. To each well was then added 1 μL of DMSO, 20 μL of BACE work solution and 20 μL of MCA-substrate stock solution.
For test compounds, measured at multiple concentrations, the measured T0 and T60 values were used to calculate an IC50 value using Graphpad Software (or PIR).

β-secretase(BACE) [2] = target: T1, β-secretase(BACE); experiment: BACE Assay-2 (FS1 substrate, IC50 and Ki); details: procedure of Example 159, FS1 substrate; for Ki: read-out: Ki μM (159)
β-secretase(BACE) [3] = target: T1, β-secretase(BACE); experiment: BACE FS1% Inhibition Assay; details: FS1 substrate; for inhibition at 3 µM / % Inhibition (FS) 3 μM: 3 μM test compound; for inhibition at 3 µM: read-out: % Inhibition (FS) 3 μM; for inhibition at 10 µM: read-out: % Inhibition (FS) 10 μM; for inhibition at 0.3 µM / % Inhibition (FS) 0.3 μM: 0.3 μM test compound; for inhibition at 0.3 µM: read-out: % Inhibition (FS) 0.3 μM; for inhibition at 1 µM / % Inhibition (FS) 1 μM: 1 μM test compound; for inhibition at 1 µM: read-out: % Inhibition (FS) 1 μM
Method in brief: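 Human BACE (4 μg/mL working solution) preincubated 20 min at room temperature with compound, then FS1 substrate (300 μg/mL working solution) added and incubated 1 h at room temperature. Percent inhibition calculated at each compound concentration against blank and vehicle controls.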

T1 sequence (P56817 46-501): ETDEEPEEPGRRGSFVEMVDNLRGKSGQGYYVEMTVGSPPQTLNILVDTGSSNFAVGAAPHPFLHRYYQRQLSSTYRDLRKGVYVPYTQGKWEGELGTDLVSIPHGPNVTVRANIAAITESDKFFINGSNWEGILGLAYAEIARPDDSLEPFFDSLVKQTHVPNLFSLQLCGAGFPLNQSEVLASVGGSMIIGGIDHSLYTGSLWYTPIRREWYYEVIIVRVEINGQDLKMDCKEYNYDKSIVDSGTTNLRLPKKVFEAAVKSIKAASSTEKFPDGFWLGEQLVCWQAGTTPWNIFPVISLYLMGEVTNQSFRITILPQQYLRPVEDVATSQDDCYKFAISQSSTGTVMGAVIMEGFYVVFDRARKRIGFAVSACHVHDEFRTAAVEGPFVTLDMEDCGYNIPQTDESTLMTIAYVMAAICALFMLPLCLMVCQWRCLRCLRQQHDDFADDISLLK

| SMILES | IC50 (β-secretase(BACE) [1]) [µM] | IC50 (β-secretase(BACE) [2]) [µM] | Ki (β-secretase(BACE) [2]) | inhibition at 3 µM (β-secretase(BACE) [3]) [%] | inhibition at 10 µM (β-secretase(BACE) [3]; 10 μM test compound) [%] | % Inhibition (FS) 3 μM (β-secretase(BACE) [3]) [%] | % Inhibition (FS) 10 μM (β-secretase(BACE) [3]; 10 μM test compound) [%] | inhibition at 0.3 µM (β-secretase(BACE) [3]) [%] | inhibition at 1 µM (β-secretase(BACE) [3]) [%] | % Inhibition (FS) 0.3 μM (β-secretase(BACE) [3]) | % Inhibition (FS) 1 μM (β-secretase(BACE) [3]) | % Inhibition (FS) 3 μM (β-secretase(BACE) [3]; 3 µM) [%] |
| --- | --- | --- | --- | --- | --- | --- | --- | --- | --- | --- | --- | --- |
| NC1=Nc2ccc(C(=O)c3ccccc3)cc2CN1CCCOc1ccccc1 [Compound 8] | 3.1 | 15 | 1.2 µM | – | – | – | – | – | – | – | – | – |
| CCCC(CCCC(=O)N(C)C1CCCCC1)N1Cc2cc(Oc3ccccc3)ccc2N=C1N (stereo not drawn) [Compound 90] | 0.074 | – | 0.22 µM | 106 | 124 | – | – | – | – | – | – | – |
| CCCC(CCCC(=O)N(C)C1CCN(C)CC1)N1Cc2cc(Oc3ccccc3)ccc2N=C1N (stereo not drawn) [Compound 106] | 0.15 | – | 0.23 µM | – | – | 103 | 114 | – | – | – | – | – |
| CN(C(=O)CCCCN1Cc2cc(Oc3cccc(NS(=O)(=O)c4ccccc4)c3)ccc2N=C1N)C1CCCCC1 [Compound 114] | 0.079 | – | 0.27 µM | 109 | 126 | – | – | – | – | – | – | – |
| CC(C)C(=O)NCCN1Cc2cc(Oc3ccccc3)ccc2N=C1N [Compound 121] | 0.58 | – | 0.32 µM | 103 | 117 | – | – | – | – | – | – | – |
| CCCCC(CC)C(=O)NCCN1Cc2cc(Oc3ccccc3)ccc2N=C1N (stereo not drawn) [Compound 122] | 0.19 | – | 0.17 µM | 101 | 123 | – | – | – | – | – | – | – |
| NC1=Nc2ccc(Oc3ccccc3)cc2CN1CCNC(=O)C1CC1 [Compound 123] | 1.2 | – | 0.3 µM | 71 | 116 | – | – | – | – | – | – | – |
| CCCC(CCC(=O)N(CC)C1CCCCC1)N1Cc2cc(Oc3ccccc3)ccc2N=C1N (stereo not drawn) [Compound 127] | 0.16 | – | 0.18 µM | 79 | 102 | – | – | – | – | – | – | – |
| CCCC(CCC(=O)NC1CCCCC1)N1Cc2cc(Oc3ccccc3)ccc2N=C1N (stereo not drawn) [Compound 129] | 0.1 | – | 0.12 µM | 113 | 113 | – | – | – | – | – | – | – |
| NC1=Nc2ccc(Oc3ccccc3)cc2CN1CCNC(=O)C1CCC1 [Compound 130] | 0.45 | – | 0.21 µM | 101 | 123 | – | – | – | – | – | – | – |
| NC1=Nc2ccc(Oc3ccccc3)cc2CN1CCNC(=O)C12CC3CC(CC(C3)C1)C2 [Compound 131] | 0.1 | – | 0.17 µM | 115 | 130 | – | – | – | – | – | – | – |
| CCCCS(=O)(=O)NCCN1Cc2cc(Oc3ccccc3)ccc2N=C1N [Compound 135, Butane-1-sulfonic acid [2-(2-amino-6-phenoxy-4H-quinazolin-3-yl)-ethyl]-amide] | 0.89 | – | 0.29 µM | 89 | 118 | – | – | – | – | – | – | – |
| CN(C(=O)c1cccc(CN2Cc3cc(-c4ccccc4)ccc3N=C2N)c1)C1CCCCC1 [Compound 138] | 0.023 | – | 0.06 µM | 114 | – | – | – | 98 | 113 | – | – | – |
| CC(C)(C)C(=O)NCCN1Cc2cc(Oc3ccccc3)ccc2N=C1N [Compound 141] | 0.15 | – | 0.08 µM | 100 | 102 | – | – | – | – | – | – | – |
| Cc1noc(C)c1-c1ccc2c(c1)CN(Cc1cccc(C(=O)N(C)C3CCCCC3)c1)C(N)=N2 [Compound 159] | 0.89 | – | 0.28 µM | 92 | – | – | – | 34 | 65 | – | – | – |
| COc1ccc(NC(=O)C(C)(C)C)c(-c2ccc3c(c2)CN(Cc2cccc(C(=O)N(C)C4CCCCC4)c2)C(N)=N3)c1 [Compound 160] | 0.54 | – | 0.12 µM | 102 | – | – | – | 51 | 78 | – | – | – |
| CN(C(=O)c1cccc(CN2Cc3cc(-c4ccsc4)ccc3N=C2N)c1)C1CCCCC1 [Compound 164] | 0.11 | – | 0.1 µM | 109 | – | – | – | 67 | 96 | – | – | – |

| SMILES | IC50 (β-secretase(BACE) [1]) [µM] | IC50 (β-secretase(BACE) [2]) [µM] | Ki (β-secretase(BACE) [2]) | inhibition at 3 µM (β-secretase(BACE) [3]) [%] | inhibition at 10 µM (β-secretase(BACE) [3]; 10 μM test compound) [%] | % Inhibition (FS) 3 μM (β-secretase(BACE) [3]) [%] | % Inhibition (FS) 10 μM (β-secretase(BACE) [3]; 10 μM test compound) [%] | inhibition at 0.3 µM (β-secretase(BACE) [3]) [%] | inhibition at 1 µM (β-secretase(BACE) [3]) [%] | % Inhibition (FS) 0.3 μM (β-secretase(BACE) [3]) | % Inhibition (FS) 1 μM (β-secretase(BACE) [3]) | % Inhibition (FS) 3 μM (β-secretase(BACE) [3]; 3 µM) [%] |
| --- | --- | --- | --- | --- | --- | --- | --- | --- | --- | --- | --- | --- |
| COc1cccc(-c2ccc3c(c2)CN(Cc2cccc(C(=O)N(C)C4CCCCC4)c2)C(N)=N3)c1 [Compound 165] | 0.19 | – | 0.28 µM | 101 | – | – | – | < 30 | 72 | – | – | – |
| COc1ccccc1-c1ccc2c(c1)CN(Cc1cccc(C(=O)N(C)C3CCCCC3)c1)C(N)=N2 [Compound 167, 3-[2-Amino-6-(2-methoxy-phenyl)-4H-quinazolin-3-ylmethyl]-N-cyclohexyl-N-methyl-benzamide] | 0.014 | – | 0.03 µM and 0.05 µM | 113 | – | – | – | 100 | 112 | 91% | 110% | 118 |
| CN(C(=O)c1cccc(CN2Cc3cc(-c4ccccc4O)ccc3N=C2N)c1)C1CCCCC1 [Compound 169] | 0.058 | – | 0.08 µM | 109 | – | – | – | 80 | 104 | – | – | – |
| CN(C(=O)c1cccc(CN2Cc3cc(-c4ccccc4CO)ccc3N=C2N)c1)C1CCCCC1 [Compound 174] | 0.085 | – | 0.07 µM | 111 | – | – | – | 85 | 106 | – | – | – |
| NC1=Nc2ccc(Oc3ccccc3)cc2CN1CCC(=O)NC1CCCCC1 [Compound 178] | 0.19 | – | 0.11 µM | 107 | – | – | – | 50 | 93 | – | – | – |
| CCCC(CCC)C(=O)NCCN1Cc2cc(Oc3ccccc3)ccc2N=C1N [Compound 183] | 0.058 | – | 0.19 µM | 106 | – | – | – | 48 | 93 | – | – | – |
| NC1=Nc2ccc(Oc3ccccc3)cc2CN1CCNC(=O)C1(c2ccc(Cl)cc2)CCCC1 [Compound 196] | 0.015 | – | 0.11 µM | 120 | – | – | – | 65 | 96 | – | – | – |
| CCC(c1cccc(C(=O)N(C)C2CCCCC2)c1)N1Cc2cc(Oc3ccccc3)ccc2N=C1N (stereo not drawn) [Compound 204, 3-[1-(2-Amino-6-phenoxy-4H-quinazolin-3-yl)-propyl]-N-cyclohexyl-N-methyl-benzamide] | 0.062 | – | 0.23 µM | 107 | – | – | – | – | – | <30% and 54% | 66% and 97% | 115 |
| NC1=Nc2ccc(Oc3ccccc3)cc2CN1CCNC(=O)NC12CC3CC(CC(C3)C1)C2 [Compound 206, 1-Adamantan-1-yl-3-[2-(2-amino-6-phenoxy-4H-quinazolin-3-yl)-ethyl]-urea] | 0.078 | – | 0.27 µM | 106 | – | – | – | < 30 | 62 | – | – | – |
| NC1=Nc2ccc(Oc3ccccc3)cc2CN1CCNC(=S)NC12CC3CC(CC(C3)C1)C2 [Compound 214, 1-Adamantan-1-yl-3-[2-(2-amino-6-phenoxy-4H-quinazolin-3-yl)-ethyl]-thiourea] | 0.19 | – | 0.1 µM | 101 | – | – | – | < 30 | 70 | – | – | – |
| NC1=Nc2ccc(Oc3ccccc3)cc2CN1CCNC(=O)NC1CCCCC1 [Compound 215] | 0.23 | – | 0.4 µM | 106 | – | – | – | 39 | 71 | – | – | – |
| CC1CCCCC1C(=O)NCCN1Cc2cc(Oc3ccccc3)ccc2N=C1N (stereo not drawn) [Compound 218] | 0.13 | – | 0.1 µM | 114 | – | – | – | 75 | 101 | – | – | – |
| COC1CCCC(C(=O)NCCN2Cc3cc(Oc4ccccc4)ccc3N=C2N)C1 (stereo not drawn) [Compound 219] | 0.31 | – | 0.17 µM | 108 | – | – | – | 51 | 85 | – | – | – |
| Cc1ccc(C(CCC(=O)N(C)C2CCCCC2)N2Cc3cc(Oc4ccccc4)ccc3N=C2N)cc1 (stereo not drawn) [Compound 421] | 0.054 | – | – | 111 | – | – | – | < 30 | 71 | – | – | – |
| CCCN1Cc2cc(Oc3cccc(NCc4ccc(OC)cc4)c3)ccc2N=C1N [Compound 502] | 0.18 | – | – | – | – | – | – | – | – | – | – | – |
| CCCN1Cc2cc(Oc3cccc(NCc4ccccc4)c3)ccc2N=C1N [Compound 507] | 0.081 | – | – | – | – | – | – | – | – | – | – | – |
| CN(C(=O)CCN1Cc2ccccc2N=C1N)c1ccccc1 [Compound 800] | 17 | – | – | – | – | – | – | – | – | – | – | – |
